Experimental data taken from patent publication US20190337924A1, “SUBSTITUTED HYDANTOIN AND THIOHYDANTOIN DERIVATIVES AS ANDROGEN RECEPTOR ANTAGONISTS” (Janssen Pharmaceutica NV, priority 2016, published 2019).
Counter-ions that a name gives are not always drawn. Like-named read-outs stand apart in the source and are kept apart here.

Target: T1, wild-type Androgen Receptor (AR-wt) (Homo sapiens, UniProt P10275)
T1 construct: expressed in transfected cells; host or cells: LNCaP
T1 sequence (P10275 1-920): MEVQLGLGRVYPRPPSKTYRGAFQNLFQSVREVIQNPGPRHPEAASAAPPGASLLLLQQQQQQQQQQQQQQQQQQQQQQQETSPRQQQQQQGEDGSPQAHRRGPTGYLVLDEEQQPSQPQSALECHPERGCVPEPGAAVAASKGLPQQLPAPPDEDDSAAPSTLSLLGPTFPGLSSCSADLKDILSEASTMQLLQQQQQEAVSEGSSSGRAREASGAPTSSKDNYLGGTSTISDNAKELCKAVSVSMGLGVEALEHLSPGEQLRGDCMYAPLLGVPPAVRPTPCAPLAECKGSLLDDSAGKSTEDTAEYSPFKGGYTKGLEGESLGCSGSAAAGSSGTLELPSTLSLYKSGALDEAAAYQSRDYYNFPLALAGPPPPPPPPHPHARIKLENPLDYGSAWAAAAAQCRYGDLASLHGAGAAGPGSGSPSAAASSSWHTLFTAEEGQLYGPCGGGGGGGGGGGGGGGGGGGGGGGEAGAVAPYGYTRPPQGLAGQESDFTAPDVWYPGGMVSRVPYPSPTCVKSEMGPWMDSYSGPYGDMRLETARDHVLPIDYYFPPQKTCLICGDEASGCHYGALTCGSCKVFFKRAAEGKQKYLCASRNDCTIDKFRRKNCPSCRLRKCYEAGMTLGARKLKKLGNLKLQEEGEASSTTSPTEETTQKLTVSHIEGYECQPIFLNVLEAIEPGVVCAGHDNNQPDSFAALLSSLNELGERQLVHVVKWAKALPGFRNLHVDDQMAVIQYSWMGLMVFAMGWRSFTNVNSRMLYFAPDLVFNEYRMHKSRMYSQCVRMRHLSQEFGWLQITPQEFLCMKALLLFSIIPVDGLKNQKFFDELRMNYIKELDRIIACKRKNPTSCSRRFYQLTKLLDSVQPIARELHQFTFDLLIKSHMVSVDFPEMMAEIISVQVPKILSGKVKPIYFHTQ
Assay: AR reporter assay, LNCaP-AR-wt ANT (antagonist mode)
Format: cell-based
Details: for Emax: read-out: LNCaP-AR-wt ANT MAX % Inh
Description: LNCaP AR (cs) and LNCaP F876L luciferase cell lines were generated by transduction of each cell line (description of cell line generation Joseph J D, Lu N, Qian J, Sensintaffar J, Shao G, Brigham D, Moon M, Maneval E C, Chen I, Darimont B, Hager J H. A clinically relevant androgen receptor mutation confers resistance to second-generation antiandrogens enzalutamide and ARN-509. Cancer Discov 2013; 3:1020-1029) with an Androgen Response Element Firefly Luciferase lentiviral construct at an MOI (multiplicity of infection) of 50 following the manufacturer's instructions (Qiagen). A stable pooled-population cell line was generated using puromycin (Life Technologies) selection at 1:10,000 v/v. The protocol below was used for both cell lines and for testing of the compounds of Formula (I) of the present invention.
LNCaP cells were grown to about 80% confluence, media removed and cells rinsed in Hank's balanced salt solution prior to separation from the plate with 0.05% Trypsin EDTA. Cells were lifted and trypsin negated in complete CSS (charcoal stripped serum) culture media. CSS was maintained on cells for 24 h prior to assay, at which time 5,000 cells/[…] were seeded in Greiner 384 well White/White Tissue Culture Treated Plates and incubated for a further 1-2 hours at 37° C., 5% CO2, prior to addition of 10 μL of 4× Test Compounds (compounds described herein) or Assay Controls (all diluted in complete media containing 10% css). A further 10 μL of 4× R-1881 Agonist Challenge (antagonist assay) or Buffer (agonist assay) was then added (all diluted in complete media containing 10% css). Agonist challenge was at 400 pM for WT assay and 600 pM for F876L assay. Plates containing cells and compounds herein were incubated for a further 20-24 hours at 37° C., 5% CO2 before addition of 40 μL/well of Steady-Glo Luciferase Assay System Reagent (Promega#E2520). After 1 h, plates were read for luminescence on a BMG Pherastar.
Agonist challenge: R-1881 (Metribolone)—Agonist
Antagonist control (low control): 5-(5-(4-((1-Methylpiperidin-4-yl)oxy)phenyl)-8-oxo-6-thioxo-5,7-diazaspiro[3.4]octan-7-yl)-3-(trifluoromethyl)picolinonitrile (WO 2011/103202, EXAMPLE 19, Compound 129, CAS #1332390-06-3).
(1−(Sample RLU−Ave Low Control RLU[10 μM Antagonist Control])/(Ave High Control RLU [400 pM R-1881]−Ave Low Control RLU[10 μM Antagonist Control]))*100.
EC/IC50 calculations were achieved utilizing calculated RLU data and data fitting macros. Data were fit using least-squares methods to the following formula: […]
As used herein: • pIC50 is defined as −Log10(IC50 expressed in [Molar]). • pEC50 is defined as −Log10(EC50 expressed in [Molar]). • MAX % Inh is defined as the maximum % inhibition of R1881 control response observed for a compound over the tested concentration range. • MAX % Stim is defined as the maximum % stimulation (agonist response) observed for a compound over the tested concentration range. • LNCaP-AR-wt ANT refers to the reporter assay using LNCaP cells stably transfected with the Androgen Response Element Firefly Luciferase lentiviral construct and wild-type Androgen Receptor (AR-wt) in Antagonist mode. • LNCaP-AR-wt AG refers to the reporter assay using LNCaP cells stably transfected with the Androgen Response Element Firefly Luciferase lentiviral construct and wild-type Androgen Receptor (AR-wt) in Agonist mode. • LNCaP-AR-F876L ANT refers to the reporter assay using LNCaP cells stably transfected with the Androgen Response Element Firefly Luciferase lentiviral construct and F876L mutant Androgen Receptor (AR-F876L) in Antagonist mode. • LNCaP-AR-F876L AG refers to the reporter assay using LNCaP cells stably transfected with the Androgen Response Element Firefly Luciferase lentiviral construct and F876L mutant Androgen Receptor (AR-F876L) in Agonist mode.

[1] = antagonist mode, 400 pM R-1881 challenge, luciferase reporter, -Log10(IC50 in Molar), read-out: LNCaP-AR-wt ANT pIC50 (converted)

| Compound | IC50 [1] [µM] | Emax [%] | IC50 [µM] |
| --- | --- | --- | --- |
| Cc1cc(N2C(=O)C3(CCC3)N(c3ccc(OC4CCN(C)CC4)nc3)C2=S)ccc1C#N [Compound 18, 2-Methyl-4-(5-(6-((1-methylpiperidin-4-yl)oxy)pyridin-3-yl)-8-oxo-6-thioxo-5,7-diazaspiro[3.4]octan-7-yl)benzonitrile] | 0.0363 | 99.4 |  |
| CN1CCC(Oc2ncc(N3C(=S)N(c4ccc(C#N)c(C(F)(F)F)c4)C(=O)C34CCC4)cn2)CC1 [Compound 16, 4-(5-(2-((1-Methylpiperidin-4-yl)oxy)pyrimidin-5-yl)-8-oxo-6-thioxo-5,7-diazaspiro[3.4]octan-7-yl)-2-(trifluoromethyl)benzonitrile] | 0.209 | 102 |  |
| CN1CCC(Oc2ccc(N3C(=S)N(c4ccc(C#N)c(C(F)(F)F)c4)C(=O)C3(C)C)cn2)CC1 [Compound 4, 4-(4,4-Dimethyl-3-(6-((1-methylpiperidin-4-yl)oxy)pyridin-3-yl)-5-oxo-2-thioxoimidazolidin-1-yl)-2-(trifluoromethyl)benzonitrile hydrochloride] |  | 102 | 0.0891 |
| N#Cc1ccc(N2C(=O)C3(CCC3)N(c3ccc(OC4CCNCC4)nc3)C2=S)cc1C(F)(F)F [Compound 13, 4-(8-Oxo-5-(6-(piperidin-4-yloxy)pyridin-3-yl)-6-thioxo-5,7-diazaspiro[3.4]octan-7-yl)-2-(trifluoromethyl)benzonitrile hydrochloride] |  | 104 | 0.0631 |
| COc1cc(N2C(=O)C3(CCC3)N(c3ccc(OC4CCN(C)CC4)nc3)C2=S)ccc1C#N [Compound 20, 2-Methoxy-4-(5-(6-((1-methylpiperidin-4-yl)oxy)pyridin-3-yl)-8-oxo-6-thioxo-5,7-diazaspiro[3.4]octan-7-yl)benzonitrile] | 0.214 | 100 |  |
| CN1CCC(Oc2ncc(N3C(=S)N(c4ccc(C#N)c(C(F)(F)F)c4)C(=O)C3(C)C)cn2)CC1 [Compound 6, 4-(4,4-Dimethyl-3-(2-((1-methylpiperidin-4-yl)oxy)pyrimidin-5-yl)-5-oxo-2-thioxoimidazolidin-1-yl)-2-(trifluoromethyl)benzonitrile] |  | 102 | 0.0912 |
| Cc1cc(N2C(=O)C3(CCC3)N(c3ccc(OC4CCN(C)CC4)cc3)C2=S)ccc1C#N [Compound 17, 2-Methyl-4-(5-(4-((1-methylpiperidin-4-yl)oxy)phenyl)-8-oxo-6-thioxo-5,7-diazaspiro[3.4]octan-7-yl)benzonitrile] | 0.17 | 105 |  |
